For this assay, the system named is 2,3-DPG blood levels. Put plainly: SAD/MAD study in healthy volunteers, blood 2,3-DPG levels (LC-MS/MS). It is filed as in vivo, human. The source says:
This is a first-in-human (FIH), Phase 1 study of Compound 1 that will characterize the safety, PK, and PD of Compound 1 after a single dose and after repeated dosing first in healthy adult volunteers and then in adolescents or adults with sickle cell disease. Initially, a dose range of Compound 1 in single ascending dose (SAD) escalation cohorts will be explored in healthy subjects. Enrollment of healthy subjects into 2-week multiple ascending dose (MAD) escalation cohorts will be initiated once the safety and PK from at least two SAD cohorts is available to inform the doses for the 2-week MAD portion of the study. The MAD cohorts will then run in parallel to the single dose cohorts. A single dose cohort is planned to understand food effects (FE) on the PK of Compound 1. […] Multiple dose studies in SCD subjects will then be initiated upon completion of MAD studies in healthy volunteers. Compound 1 will be administered in 25 mg and 100 mg tablets delivered orally.
Four healthy SAD cohorts were evaluated at doses of 200, 400, 700, and 1000 mg, and four healthy MAD cohorts received 200 to 600 mg total daily doses for 14 days at QD or BID dosing (100 mg BID, 200 mg BID, 300 mg BID, and 400 mg QD). In the food effect (FE) cohort, 10 healthy subjects received 200 mg of Compound 1 QD with and without food.
In the SAD cohorts, the subjects' blood 2,3-DPG levels were measured periodically after dosing by a qualified LC-MS/MS method for the quantitation of 2,3-DPG in blood. Decreased 2,3-DPG blood levels were observed 6 hours following a single dose of Compound 1 at all dose levels (earlier timepoints were not collected). Maximum decreases in 2,3-DPG levels generally occurred ˜24 hours after the first dose with the reduction sustained ˜48-72 hr postdose. Table 12 reports the median percentage change in 2,3-DPG blood levels, relative to baseline, measured over time in healthy volunteers after a single dose of Compound 1 (200 mg, 400 mg, 700 mg, or 1000 mg) or placebo. Accordingly, the median reduction in the concentration of 2,3-DPG, relative to baseline, was at least about 30% at all dose levels tested 24 hours after administration of the single dose.
In the MAD cohorts, the subjects' blood 2,3-DPG levels were measured periodically after dosing by a qualified LC-MS/MS method for the quantitation of 2,3-DPG in blood. The maximum decrease in 2,3-DPG on Day 14 was 55% from baseline (median). […] Table 13 reports the median percentage change in 2,3-DPG blood levels, relative to baseline, measured over time after the first dose on days 1 and 14 in healthy volunteers who received daily doses of Compound 1 (100 mg BID, 200 mg BID, or 300 mg BID) or placebo for 14 days. Accordingly, the median reduction in the concentration of 2,3-DPG, relative to baseline, was at least about 25% at all dose levels tested 24 hours after administration of the first dose on day 1 and at least about 40% at all dose levels tested 24 hours after administration of the first dose on day 14.
The following procedures are employed for the analysis of ATP and 2,3-DPG in human whole blood K2EDTA using a protein precipitation extraction procedure and analysis by LC-MS/MS.

As to `O=C([C@H](CO)c1ccccc1)N1CC2=C(C1)CN(S(=O)(=O)c1cnc3c(c1)OCCO3)C2` (single isomer, unassigned) [Compound 1], where the note is “MAD cohorts, 72 hours after the final dose on Day 14”, the “2,3-DPG levels after final dose” value is given as “had not returned to baseline levels”. Moreover, the “Mean maximum reduction in concentration of 2,3-DPG” value is “at least 50%” (MAD study) and “at least 40%” (SAD study). For the same compound, the “Median reduction in concentration of 2,3-DPG relative to baseline” value runs as follows: (MAD, all dose levels, 24 hours after first dose on day 1) “at least 25%”; (MAD, all dose levels, 24 hours after first dose on day 14) “at least 40%”; (all single dose levels tested, 24 hours after administration) “at least 30%”. Further, where the note is “SAD cohorts”, the “Time of maximum decrease in 2,3-DPG levels after first dose” value is ~24 h. The “Time postdose to which 2,3-DPG reduction was sustained” value (SAD cohorts) is 48 to 72 h. For the same compound, the “PD half-life (2,3-DPG response)” value (healthy volunteers, calculated) is ~20 h.
